Source: patent publication US20110312897A1, “CATHEPSIN L PROTEOLYTICALLY PROCESSES HISTONE H3 DURING MOUSE EMBRYONIC STEM CELL DIFFERENTIATION” (THE ROCKEFELLER UNIVERSITY, priority 2008, published 2011)
Where no end group is shown, it is not given here.

Legend:
Format in all cases: biochemical
[1] = target: H3 cleavage activity (Mus musculus, UniProt P06797); test: H3 cleavage activity with addition of chelators; settings: moderately high concentrations
Method: Extracts were incubated in buffer (10 mM HEPES, 10 mM KCl, 1.5 mM MgCl2, 0.34M sucrose, 10% glycerol, 5 mM β-mercaptoethanol, all final) with 0.1 μg/μl rH3-HIS (purified from E. coli) and incubated at 37° C. for 1-3 hours. […] For MS analysis, reactions were quenched by addition of 0.1% (final) TFA. rCathepsin L (R&D Systems, # 1515-CY-010), rCathepsin B (R&D Systems Cat No. BAF965), and rCathepsin K (Calbiochem Cat. No. 342001) were purchased from commercial sources and tested in the assay with rH[…].

[2] = target: T1, rCathepsin L (Mus musculus, UniProt P06797); test: ELISA based H3cs.1 cleavage assay of H3 15-31 peptides; settings: pH 7.5 and pH 5.5; compared to unmodified H3 15-31 peptide
T1 construct: purchased R&D Systems 1515-CY-010
Method: FIG. 7A is an immunoblot showing cleavage of the modified recombinant histone 3 substrates following incubation with rCathepsin L. The four rH3 substrates used in the cleavage assay include: 1=rH3 unmodified, 2=rH3 alkylated to K27me2, 3=rH3 pan-acetylated with acetic anhydride, 4=rH3+K27me2 pan-acetylated with acetic anhydride. FIG. 7B is a graph showing the amount of recombinant H3 cleavage product formed following incubation with Cathepsin L. H3 cleavage reactions were performed as in FIG. 7A using synthesized H3 peptides representing amino acids 15 to 31. Reactions were incubated with ˜250 pmol peptide and quenched with 0.1% TFA before being plated in duplicate for ELISA with the H3cs.1 antibody. Signal was normalized to that of mock reactions for each peptide. Results represent three independent experiments. […] Binding decreases 3-fold with cleaved peptide. p<0.01. Kds are in μM±SEM. Data points represent the mean±SD
In order to test the effect of these modifications more quantitatively and specifically, a set of five peptides with identical backbone sequences flanking the H3 cleavage site (H3 15-31) were synthesized and then modified as follows: unmodified, K18 acetyl, K23 acetyl, K18ac+K23ac, and K27me2. An ELISA based assay using the H3cs.1 antibody described previously (characterized in FIG. 11) was used to quantitatively measure the H3cs.1 cleavage activity of rCathepsin L on these peptides.

[3] = target: T2, H3 protease activity in fraction #23 (Mus musculus, UniProt P06797); test: In vitro H3 cleavage assay of hydroxyapatite fraction #23 +/- protease inhibitors
T2 construct: a double chain mature form at ˜25 kD and ˜5 kD; endogenous in cells; host or cells: chromatin of 3 days +RA differentiating mouse ESCs (LF2), hydroxyapatite fraction #23
Method: Extracts were incubated in buffer (10 mM HEPES, 10 mM KCl, 1.5 mM MgCl2, 0.34M sucrose, 10% glycerol, 5 mM β-mercaptoethanol, all final) with 0.1 μg/μl rH3-HIS (purified from E. coli) and incubated at 37° C. for 1-3 hours. Reactions were stopped by addition of 5×SDS sample buffer and boiling; results were analyzed by immunoblotting with HIS-HRP and/or H3.cs1 antibody. For MS analysis, reactions were quenched by addition of 0.1% (final) TFA. rCathepsin L (R&D Systems, # 1515-CY-010), rCathepsin B (R&D Systems Cat No. BAF965), and rCathepsin K (Calbiochem Cat. No. 342001) were purchased from commercial sources and tested in the assay with rH3-HIS.
Three days+RA differentiating ESC chromatin pellets were solubilized by sonication in buffer A (80 mM NaPO^−4, 200 mM NaCl), injected onto a 2 or 5 mL hydroxyapatite column (BioRad), and fractionated with a 200 mM to 2M NaCl gradient. Each fraction was then assayed as described above. […] Digest was then acidified with glacial acetic acid and aliquots of samples were analyzed using an LTQ-FT as described above. Data was searched against a mouse database using SEQUEST (Eng et al., Journal of the American Society of Mass Spectrometry 5:976-989 (1994), which is hereby incorporated by reference in its entirety). All spectra of interest were manually validated.
To validate further the identification of Cathepsin L as a histone H3 protease, the enriched fractions were tested with different classes of protease inhibitors in the H3 cleavage assay.

T1 sequence (P06797 114-334): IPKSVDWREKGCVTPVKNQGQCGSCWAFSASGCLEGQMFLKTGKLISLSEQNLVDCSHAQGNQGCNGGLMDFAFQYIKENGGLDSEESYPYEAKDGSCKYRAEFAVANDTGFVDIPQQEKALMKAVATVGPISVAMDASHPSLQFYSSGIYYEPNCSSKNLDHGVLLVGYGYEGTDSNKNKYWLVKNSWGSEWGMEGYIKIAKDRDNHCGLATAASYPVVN
Sequence of H3 cleavage activity (P06797 114-334): as above
T2 sequence (P06797 114-288 limits assumed): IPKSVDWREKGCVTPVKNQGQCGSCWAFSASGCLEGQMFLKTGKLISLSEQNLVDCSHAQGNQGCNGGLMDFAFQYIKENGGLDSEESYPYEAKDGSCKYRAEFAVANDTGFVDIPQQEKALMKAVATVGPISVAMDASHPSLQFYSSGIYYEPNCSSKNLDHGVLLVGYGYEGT
T2 sequence (P06797 291-334 limits assumed): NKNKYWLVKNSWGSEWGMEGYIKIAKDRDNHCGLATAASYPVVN

Compound	H3cs.1 cleavage activity of rCathepsin L on peptide [2]	also measured
O=C(O)CN(CCN(CC(=O)O)CC(=O)O)CC(=O)O [EDTA, Ethylenediaminetetraacetic acid]	–	H3 cleavage activity [1]: Significant inhibition
O=C(O)CN(CCOCCOCCN(CC(=O)O)CC(=O)O)CC(=O)O [EGTA]	–	H3 cleavage activity [1]: Significant inhibition
K18ac+K23ac: synthesized H3 15-31 peptide acetylated at K18 and K23 (APRK(Ac)QLATK(Ac)AARKSAPA; UniProt P68433 16-32, looked up, fragment)	very little cleavage activity	–
K18 acetyl: synthesized H3 15-31 peptide acetylated at K18 (APRKQLATKAARKSAPA; K18 acetylation; UniProt P68433 16-32, looked up, fragment)	increases	–
K23ac: synthesized H3 15-31 peptide acetylated at K23 (APRKQLATK(Ac)AARKSAPA; UniProt P68433 16-32, looked up, fragment)	very little cleavage activity	–
NCCc1ccc(S(=O)(=O)F)cc1 [AEBSF]	–	H3 cleavage activity ([3]; AEBSF 2 mM and 10 mM): not at the lower concentrations tested; H3 cleavage activity ([3]; AEBSF 20 mM): modest reduction in cleavage activity
K27me2: synthesized H3 15-31 peptide modified with K27me2 (APRKQLATKAARKSAPA; K27 dimethylation; UniProt P68433 16-32, looked up, fragment)	strongly increases	–
